Results on five molecules are retold here after US20190262355A1, “COMBINATION OF A BRD4 INHIBITOR AND AN ANTIFOLATE FOR THE THERAPY OF CANCER” (CeMM-Forschungszentrum für Molekulare Medizin GmbH, priority 2016, published 2019).

The test system of one test is WT-KBM7 cells. Kind of test: Cell cycle profile by PI staining and FACS (diploidization). The format is cell-based, human. Particulars: treated overnight during one week, PI incorporation and FACS (FIG. 6D). How it is done: For cell cycle analysis, 1 million cells were fixed with 70% ethanol for 24 hours, washed with PBS/1% BSA/0.1% Tween and incubated with RNase for 30 minutes. Nuclei were stained with 5 μg/ml PI (propidium iodide, Sigma) for 10 minutes prior to FACS analysis (BD FACSCalibur Flow Cytometer).
The prerequisite for effective GT genetic screens is a haploid system where monoallelic disruptive GT integration results in gene knock-out (KO). Therefore, KBM7 cells, a chronic myeloid leukemia cell line with near haploid karyotype, were chosen for the generation of the BRD4 reporter cell lines as previously described^15. […] Propidium iodide (PI) incorporation and FACS analysis were used to assay the cell cycle profile of several REDS clones in order to select a haploid clone suitable for GT-based genetic screen. […] REDS1 was the only clonal cell line with haploid karyotype (see FIG. 6B), also confirmed by metaphase spreads (see FIG. 6C).

Test [1] concerns the target T1, chromatin-associated MTHFD1 (Homo sapiens, UniProt P11586).
T1 construct: endogenous in cells; host or cells: HAP1
T1 sequence (P11586 1-935): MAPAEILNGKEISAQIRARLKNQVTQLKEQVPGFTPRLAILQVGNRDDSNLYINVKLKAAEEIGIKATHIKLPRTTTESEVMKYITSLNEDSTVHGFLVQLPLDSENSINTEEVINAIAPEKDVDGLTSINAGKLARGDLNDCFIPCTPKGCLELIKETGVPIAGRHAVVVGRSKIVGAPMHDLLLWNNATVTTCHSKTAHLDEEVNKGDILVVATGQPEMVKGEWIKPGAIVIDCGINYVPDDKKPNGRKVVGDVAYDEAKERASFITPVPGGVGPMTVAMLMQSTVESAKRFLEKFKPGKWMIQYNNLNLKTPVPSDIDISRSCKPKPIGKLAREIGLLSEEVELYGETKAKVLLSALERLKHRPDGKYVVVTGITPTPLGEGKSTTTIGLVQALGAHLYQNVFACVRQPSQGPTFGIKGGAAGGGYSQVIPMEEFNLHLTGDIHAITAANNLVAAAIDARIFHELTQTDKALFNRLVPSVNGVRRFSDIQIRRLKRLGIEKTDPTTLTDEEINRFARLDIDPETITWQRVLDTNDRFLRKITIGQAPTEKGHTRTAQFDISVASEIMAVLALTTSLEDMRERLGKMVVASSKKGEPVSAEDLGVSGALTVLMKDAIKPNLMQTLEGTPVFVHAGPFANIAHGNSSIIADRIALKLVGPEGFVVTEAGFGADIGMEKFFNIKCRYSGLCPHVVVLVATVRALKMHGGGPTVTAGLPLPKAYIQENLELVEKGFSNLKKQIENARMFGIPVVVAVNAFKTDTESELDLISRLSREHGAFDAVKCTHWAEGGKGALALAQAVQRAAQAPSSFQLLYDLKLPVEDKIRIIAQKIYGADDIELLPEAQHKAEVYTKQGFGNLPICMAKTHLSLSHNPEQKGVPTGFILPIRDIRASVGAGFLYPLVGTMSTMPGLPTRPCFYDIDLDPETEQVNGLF
Briefly: Western blot of chromatin associated proteins: MTHFD1. The conditions noted are these: HAP1 cells, two-hour treatment, 0.5 μM (FIG. 2C). The format is cell-based. How it is done: (§1) For Western Blot, proteins were separated on polyacrylamide gels with SDS running buffer (50 mM Tris, 380 mM Glycine, 7 mM SDS) and transferred to nitrocellulose blotting membranes. All membranes were blocked with blocking buffer (5% (m/v) milk powder (BioRad) in TBST (Tris-Buffered Saline with Tween: 50 mM Tris (tris (hydroxymethyl)aminomethane), 150 mM NaCl, 0.05% (v/v) Tween 20, adjusted to pH 7.6). Proteins were probed with antibodies against BRD4 (ab128874, 1:1000, Abcam), Actin (ab16039, 1:1000, Abcam), MTHFD1 (ab70203, Abcam; H120, Santa Cruz; A8, Santa Cruz; all used at 1:1000), GFP (G10362, 1:1000, Life Technology), RCC1 (C-20, 1:1000, Santa Cruz), β-Tubulin (T-4026, 1:1000, Sigma), SHMT1 (ab186130, 1:1000, Abcam) and H2B (ab156197, 1:1000, Abcam) and detected by HRP (horseradish peroxidase) conjugated donkey anti-rabbit IgG antibody (ab16284, 1:5000, Abcam) or donkey anti-mouse IgG antibody (Pierce) and visualized with the Pierce ECL Western Blotting substrate (Amersham), according to the provided protocol.
Cell fractionation and chromatin enrichment was carried out as previously described^29 with some adaptations. […]
(In general: A western blot detects proteins with antibodies after separation by electrophoresis.)

The subject of test [2] is MTHFD1 binding to genomic loci. Kind of test: ChIP-Seq of MTHFD1 genomic binding in HAP1 cells. The format is cell-based, human. Particulars: 2 h treatment (1 μM per FIG. 16A). How it is done:
Three 15 cm dishes with cells at 70-80% of confluency were used for one ChIP experiment. Briefly, cells were cross-linked with 1% formaldehyde for 10 minutes at room temperature, and then quenched with 125 mM glycine for 5 minutes at room temperature. Then, cells were washed with cold PBS, collected in 15 ml tubes and washed again with cold PBS by centrifugation at 1200 rpm for 5 minutes at 4° C. and finally snap frozen.
ChIP was performed as described^18 by using BRD4 (Bethyl Laboratories, Inc.) and MTHFD1 (sc-271413, Santa Cruz) antibodies. In brief, crosslinked cell lysates were sonicated in order to shred the chromatin into 200-500 bp fragments. Fragmented chromatin was incubated overnight at 4° C. with antibodies, followed by 2 hours at 4° C. with pre-blocked Dynabeads Protein G (ThermoFisher Scientific). […]
Reads containing adapters were trimmed using Skewer^19 and aligned to the hg19/GRCh37 assembly of the Human genome using Bowtie2^20 with the “—very-sensitive” parameter and duplicate reads were marked and removed with sambamba. Library quality was assessed with the phantomPeakQualtools scripts^21. For visualization exclusively, the inventors generated genome browser tracks with the genomeCoverageBed command in BEDTools^22 and normalized such that each value represents the read count per base pair per million mapped and filtered reads. […]

In the next test the target is T2, GST-BRD4 (full length) (Homo sapiens, UniProt O60885).
T2 construct: AlphaLISA assay performed with the indicated MTHFD1 acetylated peptides and GST-BRD4 (full length); made in house
Kind of test: AlphaLISA assay of acetylated MTHFD1 peptides with GST-BRD4. The format is binding. As for the experimental part:
The Amplified Luminescent Proximity Homogenous Assay (AlphaLISA©), a homogenous and chemiluminescence-based method, was performed to explore the direct interaction of BRD4 and acetylated substrates.
Briefly, in this assay, the biotinylated MTHFD1 acetylated peptides (possible substrates) are captured by streptavidin-coupled donor beads. GST-tagged BRD4 (produced as previously described^15) is recognized and bound by an anti-GST antibody conjugated with an acceptor bead. In case of interaction between BRD4 and one acetylated peptide, the proximity between the partners (<200 nm) allows that the excitation (680 nm wavelength) of a donor bead induces the release of a singlet oxygen molecule (^1O2) that then triggers a cascade of energy transfer in the acceptor bead, resulting in a sharp peak of light emission at 615 nm.
GST-BRD4 and each of the MTHFD1 acetylated peptides were incubated together. After 30 minutes, GSH (Glutathione) Acceptor beads (PerkinElmer) were added and after another incubation time of 30 minutes, Streptavidin-conjugated donor beads (PerkinElmer) were added. The signal (alpha counts) was read by the EnVision 2104 Multilabel Reader (PerkinElmer).
In general terms: Bead proximity is the source of the signal in Alpha formats.

A further test concerns the target T3, BRD4-MTHFD1 interaction (Homo sapiens, UniProt O60885+P11586).
T3 construct: MTHFD1 pull-down performed on HAP1 whole cell lysates treated with 50 μM (S)-JQ1, MTX; endogenous in cells; host or cells: HAP1
Kind of test: MTHFD1 pull-down on HAP1 whole cell lysates (BRD4-MTHFD1 interaction). The format is binding. Particulars: HAP1 whole cell lysates treated with 50 μM (FIG. 9I). How it is done:
For immunoprecipitation, 1 mg of protein extract was incubated overnight at 4° C. with 10 μl of Dynabeads (either A or G, Life technology) preincubated for 2 hours at 4° C. with 1 μg of BRD4 (ab128874, Abcam), MTHFD1 (A8, Santa Cruz) or GFP (G10362, Life Technology) antibodies.

Test [3] relates to MTHFD1 nuclear localization. Kind of test: Nuclear vs cytosol fractionation Western blot in HAP1 cells. The format is cell-based, human. Particulars: 72 hours (FIG. 9D). How it is done: as §1

No end group written: not given here.

On to `Cc1sc2c(c1C)C(c1ccc(Cl)cc1)=N[C@H](CC(=O)OC(C)(C)C)c1nnc(C)n1-2` [(R)-JQ1], for which, in the test on WT-KBM7 cells, the “diploidization of WT-KBM7 (cell cycle profile)” value is recorded as “Only (S)-JQ1 treatment induced WT-KBM7 diploidization”.

For `Cc1sc2c(c1C)C(c1ccc(Cl)cc1)=N[C@@H](CC(=O)NCCCCNC(=O)COc1cccc3c1C(=O)N(C1CCC(=O)NC1=O)C3=O)c1nnc(C)n1-2` (some centres unmarked) [dBET1], the “MTHFD1 on chromatin after degronimid treatment” value in test [1] is given as “MTHFD1 was lost from chromatin”. For `Cc1sc2c(c1C)C(c1ccc(Cl)cc1)=N[C@@H](CC(=O)NCCCCCCCCNC(=O)COc1cccc3c1C(=O)N(C1CCC(=O)NC1=O)C3=O)c1nnc(C)n1-2` (some centres unmarked) [dBET6], the “MTHFD1 binding to distinct genomic loci” value in test [2] is listed as “binding was lost”. Also, in test [1], the “MTHFD1 on chromatin after degronimid treatment” value was “MTHFD1 was lost from chromatin”. Consider “MTHFD1(47-66)K56ac: synthetic biotinylated MTHFD1 peptide, residues 47-66, acetylated at lysine 56 (DDSNLYINVK(Ac)LKAAEEIGIK; also: biotinylated, site not given here; UniProt P11586 47-66, looked up, fragment)”, for which the “increase of the alphaLISA signal” value with GST-BRD4 (full length) (peptide used at high concentration (FIG. 9F)) was roughly 5 fold. In addition, in the test with GST-BRD4 (full length) (titration (FIG. 9G)), the “alphaLISA peptide titration with GST-BRD4” value is recorded as “dose-responsive manner”. Also, in the test with BRD4-MTHFD1 interaction, the “effect on BRD4-MTHFD1 interaction in MTHFD1 pull-down” value is recorded as “not able to inhibit the BRD4-MTHFD1 interaction”. With ginkgolic acid, the “redistribution of MTHFD1 between nucleus and cytoplasm” value in test [3] is “did not cause a redistribution of MTHFD1 between the nucleus and cytoplasm”.
